The numbers were not newly measured in US8329742B2, “Macrocyclic compounds useful as pharmaceuticals” (EISAI Co., Ltd., priority 2002, dated 2012), which cites them from elsewhere.

The conditions of series [1]: susceptible to enone isomerization in mouse and human plasma.
Series [2] concerns the target Map/Erk kinase (MEK) (Homo sapiens, UniProt Q02750).

Sequence of Map/Erk kinase (MEK) (Q02750 whole entry): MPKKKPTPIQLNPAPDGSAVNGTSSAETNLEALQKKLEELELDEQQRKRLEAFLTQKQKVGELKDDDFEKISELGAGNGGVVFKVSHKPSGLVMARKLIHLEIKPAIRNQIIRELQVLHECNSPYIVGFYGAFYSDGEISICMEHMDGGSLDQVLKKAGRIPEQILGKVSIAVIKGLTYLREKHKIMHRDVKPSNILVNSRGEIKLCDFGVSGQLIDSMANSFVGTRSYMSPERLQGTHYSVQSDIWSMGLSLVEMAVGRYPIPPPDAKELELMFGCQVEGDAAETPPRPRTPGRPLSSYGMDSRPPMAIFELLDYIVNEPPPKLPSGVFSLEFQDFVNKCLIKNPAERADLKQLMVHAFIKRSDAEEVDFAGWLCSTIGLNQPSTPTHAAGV

In the case of `COc1cc(O)c2c(c1)/C=C/C[C@H](O)[C@H](O)C(=O)/C=C\C[C@H](C)OC2=O` [Compound F152], the biological stability entry in series [1] is “biologically unstable”. Moreover, the “inhibition of Map/Erk kinase (MEK)” value in series [2] was “inhibit”.
